These results are taken from patent publication US20220062218A1, “COMPOSITIONS AND METHODS FOR TREATING DIABETES” (ENZYCHEM LIFESCIENCES, priority 2019, published 2022).

Structures are written as SMILES. “Also recorded” adds a separate entry of the source.

Holding throughout (assay type): cell-based, rat
Test [1] deals with apoptosis-related proteins BCL-2, BAX, cytochrome c, caspase-3. Kind of test: Expression of apoptosis-related proteins (BCL-2, BAX, cytochrome c, caspase-3) by western blotting in STZ-treated cells. Here is the method:
(§1) In addition, to perform a special protein detection test (Western Blotting), cells were lysed by RIPA buffer (LPS Solution, Daejeon, Korea) supplemented with protease and phosphatase inhibitors (Thermo Scientific, Waltham, Mass., USA). Proteins were separated on 12% sodium dodecyl sulfate-polyacrylamide gels and transferred to polyvinylidene difluoride membranes (EMD Millipore, Darmstadt, Germany). The membranes were blocked with 5% BSA for 1 h and incubated with primary antibodies to GLUT2 (bs-0351r, Bioss, Woburn, Mass., USA), RAC1 (03589, EMD Millipore), BAX (B51030, Bioworld Tech, St. Louis Park, Minn., USA), BCL-2 (B51031, Bioworld), Cytochrome c (#4272, Cell Signaling Technology, Danvers, Mass., USA), Caspase-3 (#9662, Cell Signaling Technology), and Na+-K+ ATPase (#3010S, Cell Signaling Technology). After three washes in PBST, membranes were incubated with HRP-conjugated secondary antibodies (Enzo Life Sciences, dilution 1:5,000) for 1 h at room temperature. Protein bands were detected using ECL reagent (Thermo Scientific) and then visualized on films. Expression of apoptosis-related proteins like Bcl-2, Bax, cytochrome c, caspase-3 was analyzed by western blotting, Bax/Bcl-2 ratio is represented by a bar graph (FIG. 2-C). Data are presented as mean ±SD (***P<0.001 vs. control, #P<0.05, ##P<0.005 vs. STZ).

In a further test the test system is GLUT2. Nature of the test: Plasma membrane GLUT2 expression in high glucose-treated INS-1 cells, western blotting of membrane fractions. Particulars: pre-treated with 100 pg/mL of PLAG for 1 h, then 30 mM HG for indicated times. Here is the method:
To investigate the effect of PLAG on GLUT2 plasma membrane localization, membrane proteins were fractionated and analyzed by western blotting. INS-1 cells were pre-treated with 100 pg/mL of PLAG for lh, and then treated with 30 mM of HG for indicating times.
For membrane protein fractionation, we performed using the MemPER™ Plus Kit (Thermo Scientific, Waltham, Mass., USA) following the manufacturer's instructions. Proteins were separated on 12% sodium dodecyl sulfate-polyacrylamide gels and transferred to polyvinylidene difluoride membranes (EMD Millipore, Darmstadt, Germany) The membranes were blocked and incubated with primary antibodies to GLUT2 (bs-0351r, Bioss, Woburn, Mass., USA) and N+-K+ ATPase (#3010S, Cell Signaling Technology, Danvers, Mass., USA). After three washes in PBST, membranes were incubated with HRP-conjugated secondary antibodies (Enzo Life Sciences, Farmingdale, N.Y., USA) for 1 h at room temperature. Protein bands were detected using ECL reagent (Thermo Scientific) and then visualized on films.
Background: A western blot detects proteins with antibodies after separation by electrophoresis.

The subject of test [2] is clathrin- or caveolin-silenced INS-1 cells. Nature of the test: Cell apoptosis and ROS generation in clathrin or caveolin siRNA-transfected cells treated with STZ. Here is the method:
GLUT2-silenced cells were prepared to clarify the role of GLUT2 in STZ-treated cells. INS-1 cells were transfected with GLUT2 siRNA to determine whether GLUT2 expression is related to STZ-induced cell apoptosis and ROS generation.
Apoptosis of pancreatic beta cells, intracellular ROS generation and glucose intake was analyzed by flow cytometry using GLUT2 siRNA transfected cells (FIGS. 6-A to 6-C). The effect of PLAG on (D) cell apoptosis and (E) ROS generation in Endocytosis-related protein, clathrin or caveolin siRNA-transfected cells was analyzed (FIG. 6D and 6-E). Data are presented as mean ±SD. **P<0.005, ***P<0.001 vs. control, ##P<0.005, #IIIIP<0.001 vs. STZ group. N.S.: No significance. Transfection with siRNAs was performed using the HiPerFect reagent (Qiagen, Hilden, Germany), according to the manufacturer's protocol. Specific siRNAs directed against GLUT2, clathrin, and caveolin were obtained from Santa Cruz Biotechnology (Dallas, Tex., USA).

A further test concerns RAC1. Nature of the test: RAC1 expression in membrane fractions of STZ-treated cells by western blotting. The note with it: time course. Here is the method: as §1, with “STZ). […]” for “STZ).”
The subject of a further test is INS-1 cells. Kind of test: Intracellular ROS generation in STZ-treated cells, flow cytometry with DCFH-DA and immunofluorescence. Here is the method:
For intracellular ROS analyses after administering PLAG, cells were incubated with 2 μM of DCFH-DA (2′,7′-dichlorodihydrofluorescein diacetate, Invitrogen, Carlsbad, CA, USA) for 30 min at 37 ° C. The analysis was performed using a BD FACS Verse flow cytometer (BD Biosciences) (FIGS. 4A and 4B), and expression of reactive oxygen species (ROS) was observed by immunofluorescence assay (FIG. 4C). We further examined cell apoptosis in cells co-treated with three types of ROS inhibitor (Apocynin, MitoTEMPO, NAC) to examine the association of intracellular ROS generation with pancreatic beta cell apoptosis. […] Apocynin (NADPH oxidase inhibitor), MitoTEMPO (mitochondrial ROS inhibitor), and N-acetyl-L-cysteine (NAC, an overall ROS inhibitor) were used as the ROS inhibitor. Data are presented as mean ±SD(* P<0.05, ** P<0.005, *** P <0.001 vs control, #P<0.05, ## P<0.005 vs STZ).
After treatment with PLAG and PLH(1-palmitoyl-2-linoleoyl-3-hydroxyl-rac-glycerol), apoptosis, intracellular ROS generation and glucose uptake were analyzed by flow cytometry (FIG. 7-B to 7-E). In addition, expression of GLUT2 in membrane fractions was analyzed by Western blotting (FIG.7-F). Data are presented as mean ±SD. ***P<0.001 vs. control, #P<0.05, ##P<0.005 vs. STZ. N.S.: No significance.
Cells were collected by trypsinization and washed with ice-cold PBS. For cell apoptosis analyses, INS-1 cells were incubated with annexin V (BD Biosciences, Franklin Lakes, N.J., USA) for 10 min at room temperature, and stained with 7-AAD (BD Biosciences). For intracellular reactive oxygen species (ROS) analyses, cells were incubated with 2 μM of DCFH-DA (2′,7′-dichlorodihydrofluorescein diacetate, Invitrogen, Carlsbad, Calif., USA) for 30 min at 37° C. The analysis was performed using a BD FACS Verse flow cytometer (BD Biosciences).
For orientation: A flow cytometer gives signals particle by particle.

Consider `CCCCC/C=C\C/C=C\CCCCCCCC(=O)OC(COC(C)=O)COC(=O)CCCCCCCCCCCCCCC` (racemic) [PLAG, 1-palmitoyl-2-linoleoyl-3-acetyl-rac-glycerol], for which the “expression of anti-apoptotic protein BCL-2” value in test [1] (decreased by STZ) is “recovered by PLAG”. Besides, in test [1] (increased by STZ), the “expression of apoptosis-related proteins BAX, cytochrome c, and caspase-3” value is reported as “attenuated by PLAG addition”. In addition, the “GLUT2 expression in plasma membrane (time course)” value in the test on GLUT2 was “gradually decreased until 15 min, then recovered and returned to control levels at 60 min; also recorded: gradually decreased until 15min and then recovered and returned to control levels at 60 min”. Further, the “apoptosis or ROS generation in clathrin- or caveolin-silenced cells” value in test [2] is listed as “did not influence apoptosis or ROS generation”. For the same compound, the “expression of RAC1 in membrane fractions” value in the test on RAC1 was “attenuated after a slight increase in 15 min”. In addition, in the test with INS-1 cells (Example 8), the “decrease of ROS generation, PLAG vs PLH” value is reported as “more effective than PLH”. For the same compound, the “intracellular ROS (dose dependence)” value in the test with INS-1 cells (flow cytometry) is reported as “dose-dependently decreased”. In addition, the “intracellular ROS (time course)” value in the test on INS-1 cells (flow cytometry and immunofluorescence) is “attenuated”.
